The text below walks through data of ChEMBL document CHEMBL1201862, “PubChem BioAssay data set” (2004).

Structures are written as SMILES. Active and inactive are the calls of the source. For most assays here, no stated cut-off is given here; in the data, actives have a measured EC50 and inactives only a lower limit.

Assay [1] in a line: NIH-3T3 fibroblast cytotoxicity, dose response, cytotoxicity control, cell-based, fluorescence, Alamar Blue, secondary assay (AID 2327).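 Further: NIH-3T3 mouse fibroblasts cultured with fluconazole at 8 µg/mL.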 It counts as functional. A general note: The colour change of resazurin is a common sign of viable cells or microbes.
Assay [2] in a line: fluconazole-exposed Candida albicans growth modulators – fluorescence, retest, confirmation (AID 2467). Type of assay: functional, cell-based.
Assay [3] can be described thus: Luminescence Cell-Based Dose Retest to Confirm Inhibitors of Cancer Stem Cells. [Related pubchem assays (depositor defined):AID2717, AID2721]. It counts as functional. The conditions noted are these: Homo sapiens.
A short description of assay [4]: cells. It counts as functional, cell-based.
Assay [5] is described as follows: cells. It counts as functional, cell-based. This is another data set of the same source.
Assay [6] has as its target T1, Corticotropin-releasing factor receptor 2/Corticotropin-releasing factor-binding protein (Homo sapiens, UniProt P24387+Q13324).
T1 sequence (Q13324 whole entry): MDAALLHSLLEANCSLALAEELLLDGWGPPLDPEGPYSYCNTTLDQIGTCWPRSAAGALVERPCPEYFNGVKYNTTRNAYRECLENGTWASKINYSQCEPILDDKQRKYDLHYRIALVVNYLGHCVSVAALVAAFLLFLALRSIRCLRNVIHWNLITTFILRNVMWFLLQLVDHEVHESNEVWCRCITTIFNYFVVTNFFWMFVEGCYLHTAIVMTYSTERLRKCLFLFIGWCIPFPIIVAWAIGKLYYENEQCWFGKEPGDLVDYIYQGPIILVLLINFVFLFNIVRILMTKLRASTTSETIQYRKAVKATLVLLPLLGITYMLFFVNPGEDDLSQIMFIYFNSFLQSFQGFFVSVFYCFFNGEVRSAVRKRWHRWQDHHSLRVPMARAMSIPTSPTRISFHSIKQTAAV
T1 sequence (P24387 whole entry): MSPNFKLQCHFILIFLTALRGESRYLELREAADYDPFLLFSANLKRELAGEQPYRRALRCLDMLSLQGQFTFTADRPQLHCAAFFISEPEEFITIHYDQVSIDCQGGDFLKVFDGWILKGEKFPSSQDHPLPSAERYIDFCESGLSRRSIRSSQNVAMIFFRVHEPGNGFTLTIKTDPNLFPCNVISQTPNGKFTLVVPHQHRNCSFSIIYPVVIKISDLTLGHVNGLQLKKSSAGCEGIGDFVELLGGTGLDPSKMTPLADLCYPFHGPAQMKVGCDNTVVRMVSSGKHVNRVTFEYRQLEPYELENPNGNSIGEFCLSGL
As to the kind of experiment: Dose Response confirmation of uHTS hits for small molecule antagonists of the CRF-binding protein and CRF-R2 receptor complex. Type of assay: functional. The conditions noted are these: read-out: IC50_Mean.

The target in assay [7] is T1, Corticotropin-releasing factor receptor 2/Corticotropin-releasing factor-binding protein. Description: activators of CRF receptor 2 with binding protein – uHTS hits, confirmation (AID 602473). Type of assay: functional. The settings on record: read-out: EC50_Mean.
Assay [8] is described as follows: Trypanosoma cruzi growth suppression in host cells – NIH3T3 host cells, beta-gal luminescence, confirmation (AID 2044).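 Further: intracellular parasites grown in NIH/3T3 mouse fibroblasts as host cells; luminescent beta-galactosidase reporter signal from transgenic T. cruzi replicating inside host cells; inhibitors lower the luminescence signal.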 It counts as functional, cell-based.
Assay [9] deals with INS1. Description: INS-1E survival protection against cytokine death – cell-based, luminescence, retest, dose response (AID 449756).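 Further: cell death triggered by IL-1 beta plus TNF-alpha plus IFN-gamma mixture; protective hits raise ATP signal compared with cytokine alone wells.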 It counts as functional. The conditions noted are these: Rattus norvegicus.
Assay [10] is described as follows: NIH3T3 cell viability loss – ATP luminescence, mouse fibroblasts, counter-screen, dose response (AID 2010).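 Further: cells exposed to compound for about 90 hours before reading.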 It counts as functional, cell-based. In general terms: A counterscreen serves to expose hits that act by an unwanted route or on another target.
Assay [11] can be described thus: non-specific 3'UTR reporter inhibition in Clone20-Shn3RL – cell-based, Renilla luciferase, cherry-picked, counter-screen for Shn3 inhibitor project, dose response (AID 624133). It counts as functional.
Assay [12] can be described thus: reduction of Shn3 3'UTR-driven luciferase in osteoblasts – cell-based, Clone20 osteoblasts, firefly luciferase, cherry-picked, dose response (AID 624132).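 Further: firefly luciferase luminescence from reporter carrying the Shn3 3'UTR in osteoblasts.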 It counts as functional.
In assay [13] the target is T2, Replicative DNA helicase DnaB (Mycobacterium tuberculosis, UniProt P9WMR3).
T2 sequence (P9WMR3 whole entry): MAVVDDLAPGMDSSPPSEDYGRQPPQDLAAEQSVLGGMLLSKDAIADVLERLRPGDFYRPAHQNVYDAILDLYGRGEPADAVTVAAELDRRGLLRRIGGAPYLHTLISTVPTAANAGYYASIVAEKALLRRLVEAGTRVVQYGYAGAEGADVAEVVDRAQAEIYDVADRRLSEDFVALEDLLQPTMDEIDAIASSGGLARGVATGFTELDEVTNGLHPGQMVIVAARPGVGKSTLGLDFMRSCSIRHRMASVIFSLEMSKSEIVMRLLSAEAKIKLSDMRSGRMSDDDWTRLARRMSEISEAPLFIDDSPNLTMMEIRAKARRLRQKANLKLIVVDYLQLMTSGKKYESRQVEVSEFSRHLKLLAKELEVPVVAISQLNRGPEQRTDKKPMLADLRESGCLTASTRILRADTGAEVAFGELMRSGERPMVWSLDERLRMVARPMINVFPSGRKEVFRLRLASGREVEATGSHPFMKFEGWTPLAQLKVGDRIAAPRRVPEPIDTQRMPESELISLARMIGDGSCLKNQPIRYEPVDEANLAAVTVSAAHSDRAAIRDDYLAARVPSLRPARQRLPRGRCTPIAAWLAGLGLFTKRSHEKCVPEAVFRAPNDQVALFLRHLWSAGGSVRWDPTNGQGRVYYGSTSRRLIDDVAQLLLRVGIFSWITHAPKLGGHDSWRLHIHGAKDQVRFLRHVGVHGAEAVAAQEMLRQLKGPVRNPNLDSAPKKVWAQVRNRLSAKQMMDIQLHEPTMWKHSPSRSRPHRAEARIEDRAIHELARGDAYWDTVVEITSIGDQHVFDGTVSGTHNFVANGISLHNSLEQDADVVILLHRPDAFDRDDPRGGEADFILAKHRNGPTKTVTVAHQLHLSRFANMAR
As to the kind of experiment: DnaB intein splicing inhibitors, dose response, biochemical, cell-free fluorescence (AID 449749). Type of assay: functional.

In assay [14] the target is T3, Protein RecA (Mycobacterium tuberculosis, UniProt P9WHJ3).
T3 sequence (P9WHJ3 whole entry): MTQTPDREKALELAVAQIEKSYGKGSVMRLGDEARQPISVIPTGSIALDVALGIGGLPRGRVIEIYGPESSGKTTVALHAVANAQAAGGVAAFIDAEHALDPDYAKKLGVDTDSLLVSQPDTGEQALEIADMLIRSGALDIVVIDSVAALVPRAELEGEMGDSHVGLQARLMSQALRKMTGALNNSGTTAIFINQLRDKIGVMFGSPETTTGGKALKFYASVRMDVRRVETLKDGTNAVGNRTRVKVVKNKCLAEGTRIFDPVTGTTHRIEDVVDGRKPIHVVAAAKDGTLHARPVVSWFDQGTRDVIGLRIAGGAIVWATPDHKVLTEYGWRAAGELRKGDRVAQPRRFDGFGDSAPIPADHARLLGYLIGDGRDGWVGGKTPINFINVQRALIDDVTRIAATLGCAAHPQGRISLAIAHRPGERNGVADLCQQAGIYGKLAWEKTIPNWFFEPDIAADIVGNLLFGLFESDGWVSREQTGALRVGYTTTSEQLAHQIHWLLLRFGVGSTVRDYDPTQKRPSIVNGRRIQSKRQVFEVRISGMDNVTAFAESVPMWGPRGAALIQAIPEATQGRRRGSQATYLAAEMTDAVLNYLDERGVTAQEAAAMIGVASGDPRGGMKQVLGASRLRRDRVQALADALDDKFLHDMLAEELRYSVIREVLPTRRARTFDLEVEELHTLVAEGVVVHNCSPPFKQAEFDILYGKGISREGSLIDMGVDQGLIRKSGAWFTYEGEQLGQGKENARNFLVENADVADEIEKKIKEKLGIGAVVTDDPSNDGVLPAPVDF
As to the kind of experiment: Fluorescence Cell-Free Homogeneous Dose Retest to Identify Inhibitors of RecA-Intein Splicing Activity. [Related pubchem assays (depositor defined):AID2097, AID2223, AID489010, AID492950]. Type of assay: functional.

Turning to `O=C(NNC(=O)c1cc(Cl)ccc1O)c1ccc(NS(=O)(=O)c2cccs2)cc1`, the EC50 in assay [1] was > 160 µM (inactive); in assay [2], > 38 µM (not active). For the same molecule, the AC50 (as a rule, the midpoint of the concentration-response curve, whichever way the signal moves) in assay [3] was 9 µM (active).
Turning to `CCOCCCN=C(S)Nc1cc(C)cc(C)c1`, the EC50 in [4] and in assay [5] was > 350 µM (not active) in each case.
As to `COc1ccccc1S(=O)(=O)Cc1ccc(C(=O)NCc2ccccc2)o1`, the IC50 in assay [6] was > 47.1 µM (inactive). For the same molecule, the EC50 in assay [7] was > 53 µM (inactive).
With `CCCCC(=O)N1C/C=C\C(c2ccc(OC)cc2)N(Cc2ccc(F)cc2)C(=O)[C@H]1Cc1ccccc1` (stereo partly drawn), the EC50 in [8] is 1.99 µM (active); in assay [10], > 60 µM (not active). For the same molecule, the AC50 in assay [9] was 8.17 µM (active).
In the case of `O=C(NCc1ccccn1)c1cc(-c2ccc(Cl)cc2)oc1C(F)(F)F`, the AC50 in assay [9] is > 260 µM (inactive).
For the molecule `Cc1cc(CN2CCOCC2)c(O)c(C2(C)CCCCC2)c1`, the AC50 was 32.1 µM (active) in assay [11] and 32.3 µM (active) in [12].
With `Cn1c(SCC(=O)N2CCCc3ccccc32)nc2cccnc21`, in assay [6], the IC50 is > 47.1 µM (inactive). The EC50 in [7] was > 53 µM (inactive).
As for `O=C(Nc1ccc(-n2cnnn2)cc1)c1cn2ccccc2n1`, the EC50 in assay [7] was > 53 µM (inactive).
`N#CC1(NC(=O)COC(=O)c2cc(O)c3ccccc3c2O)CCCCC1`: the figures for the AC50 in assay [13] and in assay [3] were 4.37 µM (active) and 6.49 µM (active), respectively. Moreover, the EC50 in [14] is 4.28 µM (active).
On to `CCCN(CCC)C(C)C(=O)NCC1(c2ccccc2)CCCC1` (stereo not drawn), for which the EC50 in [4] is > 350 µM (not active); in [5] it was 45.6 µM (active).
For the molecule `Cc1cccnc1NC(=O)C(C)Oc1ccccc1` (stereo not drawn), in assay [6], the IC50 is > 47.1 µM (inactive). Moreover, in assay [7], the EC50 is > 53 µM (inactive).
Turning to `O=C(CSc1ccc(-c2ccccn2)nn1)Nc1nccs1`, the EC50 in assay [4] and in assay [5] was > 350 µM (not active) in each case.
In the case of `COc1ccccc1NC(=O)C1CCN(C(=O)c2ccc(C(C)(C)C)cc2)CC1`, the EC50 in [4] and in [5] was > 350 µM (not active) throughout.
Turning to `CCCCn1c(N)c(N(CC)C(=O)c2cc(OC)cc(OC)c2)c(=O)[nH]c1=O`, the EC50 in assay [4] and in assay [5] was > 350 µM (not active) in each case.
Take `COc1ccc(CNC(=O)[C@H](C)NC(=O)C2CCN(S(=O)(=O)c3ccc(F)cc3)CC2)cc1`: in [6], the IC50 is > 47.1 µM (inactive). Moreover, the EC50 in [7] is > 53 µM (inactive).
The corresponding values for `Cc1occc1C(=O)NC(C)C12CC3CC(CC(C3)C1)C2` (stereo not drawn) are > 47.1 µM (inactive) and > 53 µM (inactive).
In the case of `CSc1ccc(S(=O)(=O)NCC(=O)OCC(=O)N(Cc2ccccc2)C(C)C)cc1[N+](=O)[O-]`, the IC50 in [6] is > 47.1 µM (inactive). In addition, in assay [7], the EC50 was > 53 µM (inactive).
In the case of `CCc1ccc(Nc2nnc(SC(C)C(=O)NC3CC3)s2)cc1` (stereo not drawn), in assay [6], the IC50 was > 47.1 µM (inactive). Further, in assay [7], the EC50 was > 53 µM (inactive).
Consider `O=C(CN1c2cccc3cccc(c23)S1(=O)=O)NC1CCCCC1`, for which the IC50 in [6] was > 47.1 µM (inactive). The EC50 in assay [7] was > 53 µM (inactive).
On to `CC(/C=N/Nc1nc(C)cc(C)n1)=C\c1ccc(C(C)C)cc1`, for which the IC50 in assay [6] is > 47.1 µM (inactive). For the same molecule, the EC50 in assay [7] was > 53 µM (inactive).
As for `S=C(N/N=C/c1cccc2ccccc12)Nc1cccc(Cl)c1`, the EC50 in assay [4] and in [5] was > 350 µM (not active) in each case.
